Results published in US10544143B2, “4-azaindole compounds” (BRISTOL-MYERS SQUIBB COMPANY, priority 2017, dated 2020).
Where two headings read alike, the source gives them in different places.

What was measured:
[1] = molecular target: human TLR9 (Homo sapiens (Human), UniProt Q9NR96); experiment: TLR9 inhibition reporter assay (HEK-Blue SEAP); conditions: read-out: TLR9 IC50, ODN2006 5 nM;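 note: SEAP driven by an IFN-β minimal promoter with NF-κB and AP-1 sites, read after 22 h, compounds dosed 0.05 nM–50 µM, inhibition scaled between agonist plus DMSO and reference-inhibitor wells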
[2] = molecular target: human TLR7 (Homo sapiens (Human), UniProt Q9NYK1); experiment: TLR7 inhibition reporter assay (HEK-Blue SEAP); assay type: cell-based; conditions: gardiquimod 7.5 μM
Protocol: HEK-Blue™-cells (Invivogen) overexpressing human TLR7, TLR8 or TLR9 receptors were used for screening inhibitors of these receptors using an inducible SEAP (secreted embryonic alkaline phosphatase) reporter gene under the control of the IFN-β minimal promoter fused to five NF-κB and AP-1-binding sites. Briefly, cells are seeded into Greiner 384 well plates (15000 cells per well for TLR7, 20,000 for TLR8 and 25,000 for TLR9) and then treated with test compounds in DMSO to yield a final dose response concentration range of 0.05 nM-50 μM. After a 30 minute compound pre-treatment at room temperature, the cells are then stimulated with a TLR7 ligand (gardiquimod at a final concentration of 7.5 μM), TLR8 ligand (R848 at a final concentration of 15.9 μM) or TLR9 ligand (ODN2006 at a final concentration of 5 nM) to activate NF-κB and AP-1 which induce the production of SEAP. After a 22 hour incubation at 37° C., 5% CO2, SEAP levels are determined with the addition of HEK-Blue™ Detection reagent (Invivogen), a cell culture medium that allows for detection of SEAP, according to manufacturer's specifications.

[3] = molecular target: human TLR8 (Homo sapiens (Human), UniProt Q9NR97); experiment: TLR8 inhibition reporter assay (HEK-Blue SEAP); conditions: read-out: TLR8 IC50, R848 15.9 μM;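 note: SEAP driven by IFN-β minimal promoter carrying NF-κB and AP-1 sites, compounds dosed 0.05 nM to 50 µM for 22 h, inhibition scaled between agonist-plus-DMSO and reference-inhibitor wells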
[4] = HEK-Blue cells overexpressing human TLR9, SEAP reporter
[5] = HEK-Blue cells overexpressing human TLR7, SEAP reporter
[6] = HEK-Blue cells overexpressing human TLR8, SEAP reporter

Chain of human TLR9 (Q9NR96 26-1032): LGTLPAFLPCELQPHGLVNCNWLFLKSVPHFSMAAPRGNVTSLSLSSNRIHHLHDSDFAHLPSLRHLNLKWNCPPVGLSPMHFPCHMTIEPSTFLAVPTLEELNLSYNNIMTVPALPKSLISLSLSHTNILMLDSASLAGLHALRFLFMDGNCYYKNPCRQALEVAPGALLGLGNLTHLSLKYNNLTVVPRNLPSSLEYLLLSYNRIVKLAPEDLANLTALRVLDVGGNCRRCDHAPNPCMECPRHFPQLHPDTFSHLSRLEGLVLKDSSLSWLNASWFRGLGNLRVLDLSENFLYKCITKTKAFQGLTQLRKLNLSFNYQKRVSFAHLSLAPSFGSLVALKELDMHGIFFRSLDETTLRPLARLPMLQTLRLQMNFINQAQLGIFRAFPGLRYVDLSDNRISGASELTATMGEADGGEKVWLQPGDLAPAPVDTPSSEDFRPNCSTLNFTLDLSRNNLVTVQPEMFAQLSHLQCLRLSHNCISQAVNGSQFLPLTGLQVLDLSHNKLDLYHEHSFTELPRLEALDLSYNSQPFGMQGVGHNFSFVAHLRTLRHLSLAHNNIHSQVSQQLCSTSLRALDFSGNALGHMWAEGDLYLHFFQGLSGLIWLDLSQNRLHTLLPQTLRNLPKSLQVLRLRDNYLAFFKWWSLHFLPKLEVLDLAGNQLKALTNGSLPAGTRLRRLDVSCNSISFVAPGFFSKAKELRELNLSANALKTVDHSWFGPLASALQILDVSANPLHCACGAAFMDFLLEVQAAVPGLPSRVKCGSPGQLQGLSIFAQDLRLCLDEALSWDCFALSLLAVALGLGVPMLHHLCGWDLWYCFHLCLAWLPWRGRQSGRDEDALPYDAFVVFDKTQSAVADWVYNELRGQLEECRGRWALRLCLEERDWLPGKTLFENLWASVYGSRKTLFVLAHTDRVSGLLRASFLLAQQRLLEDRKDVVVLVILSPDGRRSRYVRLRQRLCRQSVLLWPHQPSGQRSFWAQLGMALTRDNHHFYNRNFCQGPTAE
Chain of human TLR7 (Q9NYK1 27-1049): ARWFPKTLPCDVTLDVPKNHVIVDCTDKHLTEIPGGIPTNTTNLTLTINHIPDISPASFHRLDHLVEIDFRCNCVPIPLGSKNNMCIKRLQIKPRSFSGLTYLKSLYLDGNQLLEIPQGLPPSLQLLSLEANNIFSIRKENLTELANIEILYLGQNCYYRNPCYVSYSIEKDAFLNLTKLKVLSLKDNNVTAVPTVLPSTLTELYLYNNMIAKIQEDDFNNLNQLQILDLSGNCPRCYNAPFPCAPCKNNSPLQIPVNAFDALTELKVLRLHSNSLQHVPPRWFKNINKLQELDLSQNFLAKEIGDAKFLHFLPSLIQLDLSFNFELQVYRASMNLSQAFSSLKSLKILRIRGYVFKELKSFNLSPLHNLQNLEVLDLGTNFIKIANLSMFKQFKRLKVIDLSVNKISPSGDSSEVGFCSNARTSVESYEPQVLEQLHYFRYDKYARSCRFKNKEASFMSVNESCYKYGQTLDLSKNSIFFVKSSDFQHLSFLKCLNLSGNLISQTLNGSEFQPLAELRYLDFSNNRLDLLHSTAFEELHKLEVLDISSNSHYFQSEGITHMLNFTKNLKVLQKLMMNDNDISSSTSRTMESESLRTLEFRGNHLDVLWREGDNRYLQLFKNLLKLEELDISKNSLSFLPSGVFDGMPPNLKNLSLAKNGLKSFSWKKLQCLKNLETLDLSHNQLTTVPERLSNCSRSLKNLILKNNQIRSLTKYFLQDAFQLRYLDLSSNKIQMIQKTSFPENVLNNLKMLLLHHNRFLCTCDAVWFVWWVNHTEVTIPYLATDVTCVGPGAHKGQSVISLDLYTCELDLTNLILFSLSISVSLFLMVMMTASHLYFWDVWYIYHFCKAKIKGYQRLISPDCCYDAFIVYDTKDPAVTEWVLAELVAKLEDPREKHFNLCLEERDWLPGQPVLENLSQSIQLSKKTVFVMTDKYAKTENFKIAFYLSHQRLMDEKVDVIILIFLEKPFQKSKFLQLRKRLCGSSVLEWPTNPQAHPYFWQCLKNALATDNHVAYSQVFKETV
Chain of human TLR8 (Q9NR97 27-1041): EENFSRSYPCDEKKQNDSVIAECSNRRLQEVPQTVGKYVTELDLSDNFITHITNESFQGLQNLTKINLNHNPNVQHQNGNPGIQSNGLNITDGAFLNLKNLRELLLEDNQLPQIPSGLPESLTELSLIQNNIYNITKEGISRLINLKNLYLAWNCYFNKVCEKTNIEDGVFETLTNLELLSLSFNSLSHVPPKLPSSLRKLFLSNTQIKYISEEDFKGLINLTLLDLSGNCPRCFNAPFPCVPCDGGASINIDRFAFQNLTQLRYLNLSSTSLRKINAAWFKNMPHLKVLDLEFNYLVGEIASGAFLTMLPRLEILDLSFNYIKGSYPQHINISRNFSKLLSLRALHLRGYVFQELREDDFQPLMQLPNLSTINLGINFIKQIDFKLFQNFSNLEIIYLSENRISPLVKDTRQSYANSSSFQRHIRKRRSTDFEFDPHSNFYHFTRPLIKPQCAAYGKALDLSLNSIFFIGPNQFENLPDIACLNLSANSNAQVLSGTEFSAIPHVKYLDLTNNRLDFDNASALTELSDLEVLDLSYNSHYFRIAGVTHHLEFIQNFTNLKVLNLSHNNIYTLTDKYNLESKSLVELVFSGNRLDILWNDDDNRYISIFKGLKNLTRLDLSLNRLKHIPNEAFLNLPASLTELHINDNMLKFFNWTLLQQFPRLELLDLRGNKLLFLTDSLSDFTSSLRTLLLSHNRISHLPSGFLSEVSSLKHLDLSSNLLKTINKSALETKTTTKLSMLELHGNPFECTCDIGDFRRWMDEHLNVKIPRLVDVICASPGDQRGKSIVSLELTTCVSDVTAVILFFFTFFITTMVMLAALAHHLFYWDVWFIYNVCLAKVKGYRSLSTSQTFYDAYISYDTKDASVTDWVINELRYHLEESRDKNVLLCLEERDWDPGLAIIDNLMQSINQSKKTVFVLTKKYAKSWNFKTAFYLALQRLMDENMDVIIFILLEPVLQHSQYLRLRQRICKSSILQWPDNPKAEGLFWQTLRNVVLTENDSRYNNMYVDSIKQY

Structure (SMILES) | IC50 [1, 4] [nM] | IC50 [2, 5] [nM] | IC50 [3, 6] [nM] | IC50 ([1]; HEK-Blue human TLR9 cells) [nM] | IC50 ([2]; HEK-Blue human TLR7 cells) [nM] | IC50 ([3]; HEK-Blue human TLR8 cells) [nM]
Cc1c(-c2[nH]c3ccc(C4CC5(CNC5)C4)nc3c2C(C)C)cn2ncnc2c1C [Example 745, 6-(3-isopropyl-5-(2-azaspiro[3.3]heptan-6-yl)-1H-pyrrolo[3,2-b]pyridin-2-yl)-7,8-dimethyl-[1,2,4]triazolo[1,5-a]pyridine] | 2450 | 2.2 | 5.8 | – | – | –
Cc1c(-c2[nH]c3ccc(C4CC5(C4)CN(C(=O)CCN(C)C)C5)nc3c2C(C)C)cn2ncnc2c1C [Example 746, 1-(6-(2-(7,8-dimethyl-[1,2,4]triazolo[1,5-a]pyridin-6-yl)-3-isopropyl-1H-pyrrolo[3,2-b]pyridin-5-yl)-2-azaspiro[3.3]heptan-2-yl)-3-(dimethylamino)propan-1-one] | 3110 | 1.1 | 10 | – | – | –
Cc1c(-c2[nH]c3ccc(N4[C@@H]5CC[C@H]4CN(C(=O)CN(C)C)C5)nc3c2C(C)C)cn2ncnc2c1C [Example 747] | 7380 | 0.59 | 4.1 | – | – | –
Cc1c(-c2[nH]c3ccc(N4[C@@H]5CC[C@H]4CN(CCS(C)(=O)=O)C5)nc3c2C(C)C)cn2ncnc2c1C [Example 748] | 37900 | 7.5 | 15 | – | – | –
Cc1c(-c2[nH]c3ccc(N4[C@@H](C)CN(C(=O)CN(C)C)C[C@@H]4C)nc3c2C(C)C)cn2ncnc2c1C [Example 752] | 10300 | 0.38 | 0.53 | – | – | –
Cc1c(-c2[nH]c3ccc(N4[C@@H](C)CN(CCC(N)=O)C[C@@H]4C)nc3c2C(C)C)cn2ncnc2c1C [Example 753] | 27900 | […] | 12 | – | – | –
Cc1c(-c2[nH]c3ccc(N4C[C@H]5C[C@@H](C4)N5CCC(N)=O)nc3c2C(C)C)cn2ncnc2c1C [Example 756] | 9060 | 3.9 | 6 | – | – | –
Cc1c(-c2[nH]c3ccc(N4C[C@H](C)N[C@@H](C)C4)nc3c2C(C)C)cn2ncnc2c1C [Example 757] | 5220 | 0.7 | 1.9 | – | – | –
Cc1c(-c2[nH]c3ccc(N4C[C@H](C)N(CCC(N)=O)[C@@H](C)C4)nc3c2C(C)C)cn2ncnc2c1C [Example 758] | 18200 | 0.89 | 1.7 | – | – | –
Cc1c(-c2[nH]c3ccc(N4C[C@H](C)N(CC(N)=O)[C@@H](C)C4)nc3c2C(C)C)cn2ncnc2c1C [Example 759] | 38200 | 3.8 | 14 | – | – | –
Cc1c(-c2[nH]c3ccc(N4C[C@H](C)N(C(=O)CN(C)C)[C@@H](C)C4)nc3c2C(C)C)cn2ncnc2c1C [Example 760] | 7630 | 4.2 | 27 | – | – | –
Cc1c(-c2[nH]c3ccc(N4C[C@H](C)N(C(=O)CCN(C)C)[C@@H](C)C4)nc3c2C(C)C)cn2ncnc2c1C [Example 761] | 8170 | 9 | 14 | – | – | –
Cc1c(-c2[nH]c3ccc(N4CCN(C(=O)CCN(C)C)[C@@H](C)C4)nc3c2C(C)C)cn2ncnc2c1C [Example 790] | 8810 | 0.42 | 0.85 | – | – | –
Cc1c(-c2[nH]c3ccc(N4CCN(CCC(N)=O)[C@@H](C)C4)nc3c2C(C)C)cn2ncnc2c1C [Example 791] | 18100 | 5.3 | 1.1 | – | – | –
Cc1c(-c2[nH]c3ccc(N4CCN(C(C)C)[C@@H](C)C4)nc3c2C(C)C)cn2ncnc2c1C [Example 792] | 8560 | 4 | 1 | – | – | –
Cc1c(-c2[nH]c3ccc(N4C[C@H](C)N(C(C)C)C[C@@H]4C)nc3c2C(C)C)cn2ncnc2c1C [Example 793] | 7830 | 1.4 | 1.4 | – | – | –
Cc1c(-c2[nH]c3ccc(N4C[C@H](C)N(CCC(N)=O)C[C@@H]4C)nc3c2C(C)C)cn2ncnc2c1C [Example 794] | – | – | – | 18000 | 1.4 | 1.5
Cc1c(-c2[nH]c3ccc(N4C[C@H](C)N(CCCS(C)(=O)=O)C[C@@H]4C)nc3c2C(C)C)cn2ncnc2c1C [Example 795] | – | – | – | > 50000 | 12 | 8.1
Cc1c(-c2[nH]c3ccc(N4C[C@@H](C)N(CCC(N)=O)C[C@H]4C)nc3c2C(C)C)cn2ncnc2c1C [Example 798] | – | – | – | 22300 | 4.2 | 5.7
Cc1c(-c2[nH]c3ccc(N4CCN(C5COC5)C[C@@H]4C)nc3c2C(C)C)cn2ncnc2c1C [Example 813] | – | – | – | > 50000 | 3.7 | 9.1
Cc1c(-c2[nH]c3ccc(N4CCN(C5CCOC5)C[C@@H]4C)nc3c2C(C)C)cn2ncnc2c1C (stereo partly drawn) [Example 814] | – | – | – | > 50000 | 1.9 | 2.3
Cc1c(-c2[nH]c3ccc(N4CCN(C5CCS(=O)(=O)CC5)C[C@@H]4C)nc3c2C(C)C)cn2ncnc2c1C [Example 815] | – | – | – | > 50000 | 1.8 | 1.4
Cc1c(-c2[nH]c3ccc(N4CCN(C5CCOCC5)C[C@@H]4C)nc3c2C(C)C)cn2ncnc2c1C [Example 820] | – | – | – | 9400 | 2.7 | 2
Cc1c(-c2[nH]c3ccc(N4[C@@H](C)CNC[C@@H]4C)nc3c2C(C)C)cn2ncnc2c1C [Example 821] | – | – | – | 6690 | 1.3 | 1.3
Cc1c(-c2[nH]c3ccc(N4CCN[C@H](C)C4)nc3c2C(C)C)cn2ncnc2c1C [Example 822] | – | – | – | 6910 | 1.1 | 0.24

Continued, values first:

IC50 [1, 4] [nM] | IC50 [2, 5] [nM] | IC50 [3, 6] [nM] | IC50 ([1]; HEK-Blue human TLR9 cells) [nM] | IC50 ([2]; HEK-Blue human TLR7 cells) [nM] | IC50 ([3]; HEK-Blue human TLR8 cells) [nM] | Structure (SMILES)
8300 | 2.1 | 3.2 | – | – | – | Cc1c(-c2[nH]c3ccc(N4C[C@H](C)N(C(=O)CN(C)C)C[C@@H]4C)nc3c2C(C)C)cn2ncnc2c1C [Example 788]
13300 | 3.2 | 3.7 | – | – | – | Cc1c(-c2[nH]c3ccc(N4C[C@H](C)N(C(=O)CCN(C)C)C[C@@H]4C)nc3c2C(C)C)cn2ncnc2c1C [Example 789]
– | – | – | 11300 | 6 | 15 | Cc1c(-c2[nH]c3ccc(N4C[C@@H](C)N(C(=O)CN(C)C)C[C@H]4C)nc3c2C(C)C)cn2ncnc2c1C [Example 796]
– | – | – | 17600 | 10 | 14 | Cc1c(-c2[nH]c3ccc(N4C[C@@H](C)N(C(=O)CCN(C)C)C[C@H]4C)nc3c2C(C)C)cn2ncnc2c1C [Example 797]
– | – | – | > 50000 | 5 | 21 | Cc1c(-c2[nH]c3ccc(N4C[C@@H](C)N(CC(N)=O)C[C@H]4C)nc3c2C(C)C)cn2ncnc2c1C [Example 799]
– | – | – | > 50000 | 20 | 26 | Cc1c(-c2[nH]c3ccc(N4C[C@@H](C)N(CC(N)=O)C[C@H]4C)nc3c2C(C)C)cn2ncnc2c1C [Example 800]
– | – | – | 11000 | 0.57 | 0.56 | Cc1c(-c2[nH]c3ccc(N4CCN(C(=O)CN(C)C)C[C@@H]4C)nc3c2C(C)C)cn2ncnc2c1C [Example 801]
– | – | – | 17900 | 3 | 0.65 | Cc1c(-c2[nH]c3ccc(N4CCN(CC(C)(C)O)C[C@@H]4C)nc3c2C(C)C)cn2ncnc2c1C [Example 802]
– | – | – | 39700 | 4.3 | 4 | Cc1c(-c2[nH]c3ccc(N4CCN(CC(=O)N(C)C)C[C@@H]4C)nc3c2C(C)C)cn2ncnc2c1C [Example 803]
– | – | – | 18100 | 1.2 | 0.56 | Cc1c(-c2[nH]c3ccc(N4CCN(CCC(N)=O)C[C@@H]4C)nc3c2C(C)C)cn2ncnc2c1C [Example 804]
– | – | – | 24200 | 2.1 | 0.57 | Cc1c(-c2[nH]c3ccc(N4CCN(CCCS(C)(=O)=O)C[C@@H]4C)nc3c2C(C)C)cn2ncnc2c1C [Example 805]
– | – | – | 29400 | 1.1 | 1.1 | Cc1c(-c2[nH]c3ccc(N4CCN(CCCS(C)(=O)=O)C[C@H]4C)nc3c2C(C)C)cn2ncnc2c1C [Example 806]
– | – | – | 16300 | 0.95 | 1.3 | Cc1c(-c2[nH]c3ccc(N4CCN(CCC(N)=O)C[C@H]4C)nc3c2C(C)C)cn2ncnc2c1C [Example 807]
– | – | – | 8950 | 0.19 | 1.4 | Cc1c(-c2[nH]c3ccc(N4CCN(C(=O)CN(C)C)C[C@H]4C)nc3c2C(C)C)cn2ncnc2c1C [Example 808]
– | – | – | 36000 | 2.2 | 3.1 | Cc1c(-c2[nH]c3ccc(N4CCN(CC(N)=O)C[C@@H]4C)nc3c2C(C)C)cn2ncnc2c1C [Example 809]
– | – | – | 7360 | 0.64 | 0.63 | Cc1c(-c2[nH]c3ccc(N4CCN(CC#N)C[C@@H]4C)nc3c2C(C)C)cn2ncnc2c1C [Example 810]
– | – | – | 5600 | 0.36 | 0.59 | Cc1c(-c2[nH]c3ccc(N4CCN(C(=O)CCN(C)C)C[C@@H]4C)nc3c2C(C)C)cn2ncnc2c1C [Example 811]
– | – | – | > 50000 | 2.2 | 3.6 | CNC(=O)CN1CCN(c2ccc3[nH]c(-c4cn5ncnc5c(C)c4C)c(C(C)C)c3n2)[C@@H](C)C1 [Example 812]
– | – | – | 8720 | 1.7 | 1.7 | Cc1c(-c2[nH]c3ccc(N4CCN(C(C)C)C[C@@H]4C)nc3c2C(C)C)cn2ncnc2c1C [Example 816]
– | – | – | > 50000 | 2.1 | 2.9 | Cc1c(-c2[nH]c3ccc(N4CCN(CCS(C)(=O)=O)C[C@@H]4C)nc3c2C(C)C)cn2ncnc2c1C [Example 817]
– | – | – | 12800 | 0.78 | 0.43 | CNC(=O)CCN1CCN(c2ccc3[nH]c(-c4cn5ncnc5c(C)c4C)c(C(C)C)c3n2)[C@@H](C)C1 [Example 818]
